# Experimental data from patent publication US8933230B2, “Phosphorus-containing group-substituted quinoline, its preparation process, medical composition containing the compounds and application” (priority 2011, dated 2015).
# Tests used:
# Test in all cases: KinomeScan kinase panel
# Type in all cases: binding
# SIK = molecular target: T1, SIK (Homo sapiens, UniProt P57059)
# T1 construct: purchased DiscoveRx Corporation (KinomeScan)
# How it was run: (§1)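 KinomeScan, 442 kinases incl. mutants; cpd 1000 nM; single-concentration inhibition.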
# TGFBR1 = molecular target: T2, TGFBR1 (Homo sapiens, UniProt P36897)
# T2 construct: purchased DiscoveRx Corporation (KinomeScan)
# T2 sequence (P36897 34-503): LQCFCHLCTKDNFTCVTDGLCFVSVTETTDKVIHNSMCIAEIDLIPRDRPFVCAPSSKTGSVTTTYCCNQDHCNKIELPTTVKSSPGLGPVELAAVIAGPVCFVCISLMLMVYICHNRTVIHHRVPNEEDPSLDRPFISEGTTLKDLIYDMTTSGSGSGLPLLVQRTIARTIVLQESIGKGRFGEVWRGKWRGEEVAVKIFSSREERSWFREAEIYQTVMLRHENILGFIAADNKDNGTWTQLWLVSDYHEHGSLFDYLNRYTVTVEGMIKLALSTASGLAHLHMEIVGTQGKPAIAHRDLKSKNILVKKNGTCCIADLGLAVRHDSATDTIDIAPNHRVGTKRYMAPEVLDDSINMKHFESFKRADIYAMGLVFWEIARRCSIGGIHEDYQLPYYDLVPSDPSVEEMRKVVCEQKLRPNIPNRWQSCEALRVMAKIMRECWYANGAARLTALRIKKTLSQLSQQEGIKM
# How it was run: as §1
# GAK = molecular target: T3, GAK (Homo sapiens, UniProt O14976)
# T3 construct: purchased DiscoveRx Corporation (KinomeScan)
# How it was run: as §1
# CSNK1A1L = molecular target: T4, CSNK1A1L (Homo sapiens, UniProt Q8N752)
# T4 construct: purchased DiscoveRx Corporation (KinomeScan)
# How it was run: as §1
# [1] = molecular target: T5, ABL1(M351T)-phosphorylated (Homo sapiens, UniProt P00519, M351T)
# T5 construct: purchased DiscoveRx Corporation (KinomeScan)
# How it was run: as §1
# INSRR = molecular target: T6, INSRR (Homo sapiens, UniProt P14616)
# T6 construct: purchased DiscoveRx Corporation (KinomeScan)
# How it was run: as §1
# EGFR(S752-1759del) = molecular target: T7, EGFR(S752-1759del) (Homo sapiens, UniProt P00533, DEL752-759)
# T7 construct: purchased DiscoveRx Corporation (KinomeScan)
# How it was run: as §1
# PAK3 = molecular target: T8, PAK3 (Homo sapiens, UniProt O75914)
# T8 construct: purchased DiscoveRx Corporation (KinomeScan panel)
# How it was run: as §1
# PRKG1 = molecular target: T9, PRKG1 (Homo sapiens, UniProt Q13976)
# T9 construct: purchased DiscoveRx Corporation (KinomeScan)
# How it was run: as §1
# IRAK4 = molecular target: T10, IRAK4 (Homo sapiens, UniProt Q9NWZ3)
# T10 construct: purchased DiscoveRx Corporation (KinomeScan)
# T10 sequence (Q9NWZ3 whole entry): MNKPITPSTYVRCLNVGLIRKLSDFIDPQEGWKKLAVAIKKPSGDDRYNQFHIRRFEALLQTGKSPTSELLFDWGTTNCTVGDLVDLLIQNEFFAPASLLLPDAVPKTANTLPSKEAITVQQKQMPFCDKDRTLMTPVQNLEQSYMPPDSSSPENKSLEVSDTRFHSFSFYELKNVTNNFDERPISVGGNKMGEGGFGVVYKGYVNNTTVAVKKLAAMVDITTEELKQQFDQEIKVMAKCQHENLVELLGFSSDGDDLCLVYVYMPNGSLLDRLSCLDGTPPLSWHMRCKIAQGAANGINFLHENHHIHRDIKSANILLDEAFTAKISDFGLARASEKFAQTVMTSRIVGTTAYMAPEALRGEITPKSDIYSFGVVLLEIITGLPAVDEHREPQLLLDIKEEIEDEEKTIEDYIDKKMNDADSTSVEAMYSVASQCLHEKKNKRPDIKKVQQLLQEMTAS
# How it was run: as §1
# PIP5K2C = molecular target: T11, PIP5K2C (Homo sapiens, UniProt Q8TBX8)
# T11 construct: purchased DiscoveRx Corporation (KinomeScan)
# How it was run: as §1
# PIP5K2B = molecular target: T12, PIP5K2B (Homo sapiens, UniProt P78356)
# T12 construct: purchased DiscoveRx Corporation (KinomeScan)
# T12 sequence (P78356 whole entry): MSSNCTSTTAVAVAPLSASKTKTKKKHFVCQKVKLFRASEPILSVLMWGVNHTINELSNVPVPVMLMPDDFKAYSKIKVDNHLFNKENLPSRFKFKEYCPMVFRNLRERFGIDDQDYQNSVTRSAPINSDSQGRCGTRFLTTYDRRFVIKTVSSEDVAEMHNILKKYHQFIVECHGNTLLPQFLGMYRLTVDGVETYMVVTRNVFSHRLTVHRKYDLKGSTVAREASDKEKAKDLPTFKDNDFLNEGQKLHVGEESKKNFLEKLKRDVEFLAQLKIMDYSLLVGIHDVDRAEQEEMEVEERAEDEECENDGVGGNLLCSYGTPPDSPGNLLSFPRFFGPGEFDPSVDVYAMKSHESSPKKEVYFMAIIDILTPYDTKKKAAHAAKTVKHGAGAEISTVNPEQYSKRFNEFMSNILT
# How it was run: as §1
# MST2 = molecular target: T13, MST2 (Homo sapiens, UniProt Q13188)
# T13 construct: purchased DiscoveRx Corporation (KinomeScan)
# How it was run: as §1
# NEK9 = molecular target: T14, NEK9 (Homo sapiens, UniProt Q8TD19)
# T14 construct: purchased DiscoveRx Corporation (KinomeScan panel)
# How it was run: as §1
# CDC2L1 = molecular target: T15, CDC2L1 (Homo sapiens, UniProt P21127)
# T15 construct: purchased DiscoveRx Corporation (KinomeScan)
# T15 sequence (P21127 whole entry): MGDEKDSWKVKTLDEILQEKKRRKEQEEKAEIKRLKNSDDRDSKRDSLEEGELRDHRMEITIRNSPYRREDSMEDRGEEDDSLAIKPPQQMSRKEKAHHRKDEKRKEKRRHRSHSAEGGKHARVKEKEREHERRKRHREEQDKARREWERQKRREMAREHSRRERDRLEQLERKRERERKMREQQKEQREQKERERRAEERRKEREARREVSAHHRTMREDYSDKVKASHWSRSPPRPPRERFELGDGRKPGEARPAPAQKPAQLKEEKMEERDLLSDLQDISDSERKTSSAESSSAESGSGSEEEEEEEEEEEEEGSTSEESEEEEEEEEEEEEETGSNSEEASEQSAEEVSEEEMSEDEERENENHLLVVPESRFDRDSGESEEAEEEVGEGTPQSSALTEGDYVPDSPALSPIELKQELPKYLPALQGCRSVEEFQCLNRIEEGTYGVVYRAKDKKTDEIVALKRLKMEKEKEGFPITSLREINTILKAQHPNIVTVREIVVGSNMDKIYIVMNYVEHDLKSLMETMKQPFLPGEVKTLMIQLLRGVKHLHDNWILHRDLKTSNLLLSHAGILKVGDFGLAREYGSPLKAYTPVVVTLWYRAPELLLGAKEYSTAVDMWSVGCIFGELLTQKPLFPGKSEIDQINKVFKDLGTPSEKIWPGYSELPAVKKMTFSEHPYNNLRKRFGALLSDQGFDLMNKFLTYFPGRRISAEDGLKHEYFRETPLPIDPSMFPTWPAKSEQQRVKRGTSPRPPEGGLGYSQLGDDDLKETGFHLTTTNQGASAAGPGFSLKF
# How it was run: as §1
# PIK3CA(M1043I) = molecular target: T16, PIK3CA(M1043I) (Homo sapiens, UniProt P42336, M1043I)
# T16 construct: purchased DiscoveRx Corporation (KinomeScan)
# T16 sequence (P42336 whole entry M1043I): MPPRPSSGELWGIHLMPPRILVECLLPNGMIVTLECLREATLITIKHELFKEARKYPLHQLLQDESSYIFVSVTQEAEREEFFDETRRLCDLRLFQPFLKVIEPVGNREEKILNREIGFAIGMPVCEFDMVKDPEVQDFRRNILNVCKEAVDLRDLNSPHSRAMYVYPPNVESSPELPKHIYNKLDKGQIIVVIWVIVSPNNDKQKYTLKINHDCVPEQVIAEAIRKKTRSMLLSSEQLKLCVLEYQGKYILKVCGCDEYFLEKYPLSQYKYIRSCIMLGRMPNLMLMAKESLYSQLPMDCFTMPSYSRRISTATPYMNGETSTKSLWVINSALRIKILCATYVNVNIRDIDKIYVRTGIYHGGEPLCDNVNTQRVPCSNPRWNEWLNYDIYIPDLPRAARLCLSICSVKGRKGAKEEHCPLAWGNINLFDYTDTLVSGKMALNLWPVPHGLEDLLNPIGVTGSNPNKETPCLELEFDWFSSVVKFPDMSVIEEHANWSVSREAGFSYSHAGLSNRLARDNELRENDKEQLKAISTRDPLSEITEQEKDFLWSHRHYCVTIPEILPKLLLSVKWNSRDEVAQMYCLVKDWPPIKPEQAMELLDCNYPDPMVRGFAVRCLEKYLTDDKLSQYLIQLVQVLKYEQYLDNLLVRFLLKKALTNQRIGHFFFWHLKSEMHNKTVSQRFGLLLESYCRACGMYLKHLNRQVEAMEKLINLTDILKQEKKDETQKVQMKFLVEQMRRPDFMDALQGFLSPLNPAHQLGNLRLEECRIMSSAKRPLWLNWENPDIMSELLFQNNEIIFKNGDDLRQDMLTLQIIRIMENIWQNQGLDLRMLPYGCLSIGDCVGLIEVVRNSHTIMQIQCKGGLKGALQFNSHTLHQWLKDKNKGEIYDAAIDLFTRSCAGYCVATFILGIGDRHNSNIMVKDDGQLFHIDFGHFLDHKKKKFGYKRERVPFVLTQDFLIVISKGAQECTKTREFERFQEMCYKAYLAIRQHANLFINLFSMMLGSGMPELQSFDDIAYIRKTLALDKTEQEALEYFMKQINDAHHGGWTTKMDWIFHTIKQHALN
# How it was run: as §1
# EGFR = molecular target: T17, EGFR (Homo sapiens, UniProt P00533)
# T17 construct: purchased DiscoveRx Corporation (KinomeScan)
# How it was run: as §1
# FGFR3 = molecular target: T18, FGFR3 (Homo sapiens, UniProt P22607)
# T18 construct: purchased DiscoveRx Corporation (KinomeScan)
# How it was run: as §1
# PRKCD = molecular target: T19, PRKCD (Homo sapiens, UniProt Q05655)
# T19 construct: purchased DiscoveRx Corporation (KinomeScan)
# How it was run: as §1
# DAPK3 = molecular target: T20, DAPK3 (Homo sapiens, UniProt O43293)
# T20 construct: purchased DiscoveRx Corporation (KinomeScan)
# How it was run: as §1
# EPHA2 = molecular target: T21, EPHA2 (Homo sapiens, UniProt P29317)
# T21 construct: purchased DiscoveRx Corporation (KinomeScan)
# How it was run: as §1
# PIK3CA (H1047L) = molecular target: T22, PIK3CA (H1047L) (Homo sapiens, UniProt P42336, H1047L)
# T22 construct: purchased DiscoveRx Corporation (KinomeScan)
# T22 sequence (P42336 whole entry H1047L): as the sequence (P42336 whole entry M1043I) above, with I1043M, H1047L counted along it
# How it was run: as §1
# MINK = molecular target: T23, MINK (Homo sapiens, UniProt Q8N4C8)
# T23 construct: purchased DiscoveRx Corporation (KinomeScan)
# How it was run: as §1
# NIM1 = molecular target: T24, NIM1 (Homo sapiens, UniProt Q8IY84)
# T24 construct: purchased DiscoveRx Corporation (KinomeScan panel)
# How it was run: as §1
# [2] = molecular target: T25, RSK1(Kin.Dom.1-N-terminal) (Homo sapiens, UniProt Q15418)
# T25 construct: Kin.Dom.1; purchased DiscoveRx Corporation
# T25 sequence (Q15418 62-321 limits assumed): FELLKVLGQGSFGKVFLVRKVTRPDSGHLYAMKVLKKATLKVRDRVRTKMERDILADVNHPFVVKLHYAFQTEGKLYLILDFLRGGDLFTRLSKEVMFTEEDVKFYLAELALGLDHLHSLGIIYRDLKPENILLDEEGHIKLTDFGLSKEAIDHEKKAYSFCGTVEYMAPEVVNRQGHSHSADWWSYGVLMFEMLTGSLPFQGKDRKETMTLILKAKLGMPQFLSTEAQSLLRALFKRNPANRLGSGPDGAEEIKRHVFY
# How it was run: as §1
# NEK11 = molecular target: T26, NEK11 (Homo sapiens, UniProt Q8NG66)
# T26 construct: purchased DiscoveRx Corporation (KinomeScan)
# How it was run: as §1
# CSF1R = molecular target: T27, CSF1R (Homo sapiens, UniProt P07333)
# T27 construct: purchased DiscoveRx Corporation (KinomeScan)
# T27 sequence (P07333 20-972): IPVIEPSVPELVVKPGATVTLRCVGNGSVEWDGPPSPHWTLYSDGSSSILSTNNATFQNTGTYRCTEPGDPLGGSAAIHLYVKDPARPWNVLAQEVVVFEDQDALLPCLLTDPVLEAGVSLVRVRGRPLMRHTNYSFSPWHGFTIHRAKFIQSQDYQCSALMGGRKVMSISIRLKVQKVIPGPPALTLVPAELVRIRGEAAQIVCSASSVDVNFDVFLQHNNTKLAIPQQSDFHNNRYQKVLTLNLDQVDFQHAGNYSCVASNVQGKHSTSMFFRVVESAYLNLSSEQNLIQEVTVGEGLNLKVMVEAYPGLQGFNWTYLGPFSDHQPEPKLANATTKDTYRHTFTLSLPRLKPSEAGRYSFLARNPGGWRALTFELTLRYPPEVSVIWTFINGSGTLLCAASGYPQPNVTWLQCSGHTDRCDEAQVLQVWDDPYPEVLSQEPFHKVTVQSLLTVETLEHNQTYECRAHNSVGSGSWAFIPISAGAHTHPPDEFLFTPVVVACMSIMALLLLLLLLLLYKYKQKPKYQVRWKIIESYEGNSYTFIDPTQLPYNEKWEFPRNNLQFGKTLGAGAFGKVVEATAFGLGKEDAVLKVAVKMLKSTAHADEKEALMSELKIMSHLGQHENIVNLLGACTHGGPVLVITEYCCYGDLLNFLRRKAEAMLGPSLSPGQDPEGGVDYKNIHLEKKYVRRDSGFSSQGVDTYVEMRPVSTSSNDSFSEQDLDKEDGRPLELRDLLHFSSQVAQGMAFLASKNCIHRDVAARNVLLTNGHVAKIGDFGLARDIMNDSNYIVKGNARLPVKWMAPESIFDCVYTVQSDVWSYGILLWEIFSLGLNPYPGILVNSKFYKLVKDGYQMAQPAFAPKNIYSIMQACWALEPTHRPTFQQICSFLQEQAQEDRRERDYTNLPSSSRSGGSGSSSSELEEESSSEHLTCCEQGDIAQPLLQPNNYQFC
# How it was run: as §1
# RIOK3 = molecular target: T28, RIOK3 (Homo sapiens, UniProt O14730)
# T28 construct: purchased DiscoveRx Corporation
# T28 sequence (O14730 whole entry): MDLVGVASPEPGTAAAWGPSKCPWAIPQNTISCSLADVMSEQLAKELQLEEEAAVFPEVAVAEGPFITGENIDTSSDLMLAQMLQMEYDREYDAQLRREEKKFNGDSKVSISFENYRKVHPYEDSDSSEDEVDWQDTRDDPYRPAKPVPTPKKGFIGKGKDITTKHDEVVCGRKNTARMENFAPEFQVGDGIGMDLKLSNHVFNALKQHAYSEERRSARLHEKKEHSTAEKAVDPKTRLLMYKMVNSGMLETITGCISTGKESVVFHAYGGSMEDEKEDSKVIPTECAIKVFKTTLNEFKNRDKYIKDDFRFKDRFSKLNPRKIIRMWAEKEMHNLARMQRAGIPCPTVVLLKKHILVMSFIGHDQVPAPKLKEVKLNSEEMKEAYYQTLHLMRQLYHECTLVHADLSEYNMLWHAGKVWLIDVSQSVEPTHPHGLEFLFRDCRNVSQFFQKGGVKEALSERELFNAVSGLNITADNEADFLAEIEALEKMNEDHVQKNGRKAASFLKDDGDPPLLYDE
# How it was run: as §1
# TNNI3K = molecular target: T29, TNNI3K (Homo sapiens, UniProt Q59H18)
# T29 construct: purchased DiscoveRx Corporation (KinomeScan)
# How it was run: as §1
# ACVRL1 = molecular target: T30, ACVRL1 (Homo sapiens, UniProt P37023)
# T30 construct: purchased DiscoveRx Corporation (KinomeScan)
# How it was run: as §1
# FLT3 = molecular target: T31, FLT3 (Homo sapiens, UniProt P36888)
# T31 construct: purchased DiscoveRx Corporation (KinomeScan)
# How it was run: as §1
# NEK5 = molecular target: T32, NEK5 (Homo sapiens, UniProt Q6P3R8)
# T32 construct: purchased DiscoveRx Corporation (KinomeScan panel)
# How it was run: as §1
# FLT1 = molecular target: T33, FLT1 (Homo sapiens, UniProt P17948)
# T33 construct: purchased DiscoveRx Corporation (KinomeScan)
# How it was run: as §1
# WEE2 = molecular target: T34, WEE2 (Homo sapiens, UniProt P0C1S8)
# T34 construct: purchased DiscoveRx Corporation (KinomeScan service)
# How it was run: as §1
# DAPK2 = molecular target: T35, DAPK2 (Homo sapiens, UniProt Q9UIK4)
# T35 construct: purchased DiscoveRx Corporation (KinomeScan)
# How it was run: as §1
smiles,measurement,setting,value
"CCOP(=O)(CN1CCC(COc2cc3nccc(Oc4ccc(NC(=O)C5(C(=O)Nc6ccc(F)cc6)CC5)cc4F)c3cc2OC)CC1)OCC [Example 10, N1-[4-[[7-[[1-(diethoxyphosphorylmethyl)-4-piperidinyl]methoxyl]-6-methoxyl-4-quinolyl]oxyl]-3-fluorophenyl]-N1′-(4-fluorophenyl)cyclopropane-1,1-dicarboxamide]",% Ctrl@1000 nM,SIK,60 % Ctrl
same,% Ctrl@1000 nM,TGFBR1,100 % Ctrl
same,% Ctrl@1000 nM,GAK,100 % Ctrl
same,% Ctrl@1000 nM,CSNK1A1L,100 % Ctrl
same,% Ctrl@1000 nM,[1],42 % Ctrl
same,% Ctrl@1000 nM,INSRR,65 % Ctrl
same,% Ctrl@1000 nM,EGFR(S752-1759del),82 % Ctrl
same,% Ctrl@1000 nM,PAK3,32 % Ctrl
same,% Ctrl@1000 nM,PRKG1,100 % Ctrl
same,% Ctrl@1000 nM,IRAK4,100 % Ctrl
same,% Ctrl@1000 nM,PIP5K2C,38 % Ctrl
same,% Ctrl@1000 nM,PIP5K2B,100 % Ctrl
same,% Ctrl@1000 nM,MST2,100 % Ctrl
same,% Ctrl@1000 nM,NEK9,66 % Ctrl
same,% Ctrl@1000 nM,CDC2L1,100 % Ctrl
same,% Ctrl@1000 nM,PIK3CA(M1043I),100 % Ctrl
same,% Ctrl@1000 nM,EGFR,100 % Ctrl
same,% Ctrl@1000 nM,FGFR3,69 % Ctrl
same,% Ctrl@1000 nM,PRKCD,100 % Ctrl
same,% Ctrl@1000 nM,DAPK3,100 % Ctrl
same,% Ctrl@1000 nM,EPHA2,4.8 % Ctrl
same,% Ctrl@1000 nM,PIK3CA (H1047L),100 % Ctrl
same,% Ctrl@1000 nM,MINK,100 % Ctrl
same,% Ctrl@1000 nM,NIM1,100 % Ctrl
same,% Ctrl@1000 nM,[2],59 % Ctrl
same,% Ctrl@1000 nM,NEK11,100 % Ctrl
same,% Ctrl@1000 nM,CSF1R,0.25 % Ctrl
same,% Ctrl@1000 nM,RIOK3,100 % Ctrl
same,% Ctrl@1000 nM,TNNI3K,94 % Ctrl
same,% Ctrl@1000 nM,ACVRL1,100 % Ctrl
same,% Ctrl@1000 nM,FLT3,2.3 % Ctrl
same,% Ctrl@1000 nM,NEK5,97 % Ctrl
same,% Ctrl@1000 nM,FLT1,7.3 % Ctrl
same,% Ctrl@1000 nM,WEE2,100 % Ctrl
same,% Ctrl@1000 nM,DAPK2,100 % Ctrl
